The values below come from patent publication US7625950B2, “Amino-propanol derivatives as sphingosine-1-phosphate receptor modulator” (Novartis AG, priority 2003, dated 2009).

One may read the EC50 as the concentration that produces a half-maximal response. Read a high EC50 as a less potent agent.

The target of assay [1] is T1, human S1P receptor EDG-1 (S1P1) (Homo sapiens, UniProt P21453).
T1 construct: expressed in transfected cells
Description: S1P receptor profiling, GTP[γ-35S] binding SPA, S1P1. It is filed as biochemical. Particulars: for S1P1 mode of action (Agon. = agonist): GTP[γ-35S] binding SPA; for EC50: GTP[γ-35S] binding to membrane protein of transfected CHO or RH7777 cells, SPA. How it is done: (§1) Sphingosine-1-Phosphate (S1P) Receptor Profiling
(§2) Agonist activities of compounds are tested on the human SIP receptors EDG-1 (S1P1), EDG-3 (S1P3), EDG-5 (S1P2), EDG-6 (S1P4) and EDG-8 (S1P5). […] The assay technology used is SPA (scintillation proximity based assay). Briefly, DMSO dissolved compounds are serially diluted and added to SPA-bead (Amersham-Pharmacia) immobilised SIP receptor expressing membrane protein (10-20 μg/well) in the presence of 50 mM Hepes, 100 mM NaCl, 10 mM MgCl2, 10 μM GDP, 0.1% fat free BSA and 0.2 nM GTP [γ-^35S] (1200 Ci/mmol). After incubation in 96 well microtiterplates at RT for 120 min, unbound GTP [γ-^35S] is separated by a centrifugation step. Luminescence of SPA beads triggered by membrane bound GTP [γ-^35S] is quantified with a TOP count plate reader (Packard). EC50s are calculated using standard curve fitting software. In this assay, the compounds of formula I have a binding affinity to S1P1 receptor <50 nM.
Background: GTPγS is a poorly hydrolysed GTP analogue; its binding reports G protein activation.

Assay [2] concerns the target T2, human S1P receptor EDG-8 (S1P5) (Homo sapiens, UniProt Q9H228).
T2 construct: expressed in transfected cells
Description: S1P receptor profiling, GTP[γ-35S] binding SPA, S1P5. It is filed as biochemical. The note with it: for S1P5 mode of action (Agon. = agonist): GTP[γ-35S] binding SPA; for EC50: GTP[γ-35S] binding to membrane protein of transfected CHO or RH7777 cells, SPA. How it is done:
as §1, §2

In assay [3] the target is T3, human S1P receptor EDG-3 (S1P3) (Homo sapiens, UniProt Q99500).
T3 construct: expressed in transfected cells
Description: S1P receptor profiling, GTP[γ-35S] binding SPA, S1P3. It is filed as biochemical. The note with it: for S1P3 mode of action (Agon. = agonist): GTP[γ-35S] binding SPA; for EC50: GTP[γ-35S] binding to membrane protein of transfected CHO or RH7777 cells, SPA. How it is done: as §1, §2

Assay [4] concerns the target T4, human S1P receptor EDG-6 (S1P4) (Homo sapiens, UniProt O95977).
T4 construct: expressed in transfected cells
T4 sequence (O95977 1-384): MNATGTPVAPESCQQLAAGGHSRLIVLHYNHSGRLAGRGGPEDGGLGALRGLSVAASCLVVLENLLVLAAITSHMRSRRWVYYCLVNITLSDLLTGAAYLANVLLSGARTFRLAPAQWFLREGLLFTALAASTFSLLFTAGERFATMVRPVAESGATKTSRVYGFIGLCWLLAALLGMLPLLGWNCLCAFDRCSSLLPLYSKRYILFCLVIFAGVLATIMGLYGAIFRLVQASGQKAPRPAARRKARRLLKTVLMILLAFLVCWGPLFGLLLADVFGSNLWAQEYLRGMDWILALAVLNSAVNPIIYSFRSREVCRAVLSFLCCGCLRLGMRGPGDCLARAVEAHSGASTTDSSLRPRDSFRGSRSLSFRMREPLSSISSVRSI
Description: S1P receptor profiling, GTP[γ-35S] binding SPA, S1P4. The format is biochemical. The note with it: for EC50: GTP[γ-35S] binding to membrane protein of transfected CHO or RH7777 cells, SPA; for S1P4 mode of action (Agon. = agonist): GTP[γ-35S] binding SPA. How it is done:
as §1, §2

Assay [5] has as its system peripheral blood lymphocytes. Description: Blood lymphocyte depletion. The note with it: rats, p.o. It is filed as in vivo. How it is done:
B. In Vivo: Blood Lymphocyte Depletion
A compound of formula I or the vehicle is administered orally by gavage to rats. Tail blood for hematological monitoring is obtained on day −1 to give the baseline individual values, and at 2, 6, 24, 48 and 72 hours after application.

Where a name gives a salt, the structure may show the parent alone. A value given as a limit tells only on which side of the number the result lay.

T2 sequence (Q9H228 whole entry): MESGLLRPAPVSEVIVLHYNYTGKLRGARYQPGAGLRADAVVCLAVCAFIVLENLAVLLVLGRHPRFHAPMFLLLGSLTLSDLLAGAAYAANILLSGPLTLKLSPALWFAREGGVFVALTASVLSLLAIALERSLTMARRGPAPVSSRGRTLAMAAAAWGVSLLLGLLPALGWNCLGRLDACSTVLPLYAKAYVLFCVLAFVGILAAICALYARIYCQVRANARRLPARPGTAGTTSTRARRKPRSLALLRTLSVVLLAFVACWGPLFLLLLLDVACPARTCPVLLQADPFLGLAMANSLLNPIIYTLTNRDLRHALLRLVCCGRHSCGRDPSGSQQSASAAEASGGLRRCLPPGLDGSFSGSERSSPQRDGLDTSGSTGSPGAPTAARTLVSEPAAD
T3 sequence (Q99500 whole entry): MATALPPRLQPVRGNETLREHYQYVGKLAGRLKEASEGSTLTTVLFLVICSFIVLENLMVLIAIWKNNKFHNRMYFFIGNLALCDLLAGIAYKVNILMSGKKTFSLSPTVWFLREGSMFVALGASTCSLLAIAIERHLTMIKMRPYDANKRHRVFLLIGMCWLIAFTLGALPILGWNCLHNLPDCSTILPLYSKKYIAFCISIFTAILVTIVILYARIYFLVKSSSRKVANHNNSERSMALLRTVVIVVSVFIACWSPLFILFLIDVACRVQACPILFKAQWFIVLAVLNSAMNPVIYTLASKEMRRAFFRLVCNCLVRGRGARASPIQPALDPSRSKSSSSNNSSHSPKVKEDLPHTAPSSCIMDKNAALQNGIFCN
T1 sequence (P21453 whole entry): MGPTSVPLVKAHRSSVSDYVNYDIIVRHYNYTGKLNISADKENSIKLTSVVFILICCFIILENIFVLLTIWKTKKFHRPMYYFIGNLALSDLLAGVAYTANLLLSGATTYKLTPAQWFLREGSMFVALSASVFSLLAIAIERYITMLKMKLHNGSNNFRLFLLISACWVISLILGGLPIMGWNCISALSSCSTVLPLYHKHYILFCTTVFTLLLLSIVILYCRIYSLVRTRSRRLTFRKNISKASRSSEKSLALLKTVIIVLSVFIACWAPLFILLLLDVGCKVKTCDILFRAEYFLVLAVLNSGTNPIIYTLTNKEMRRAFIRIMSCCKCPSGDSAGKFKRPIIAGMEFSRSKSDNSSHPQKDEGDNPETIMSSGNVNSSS

As for `C[C@@](N)(CCc1ccc(OCCOc2ccc(Cl)cc2)cc1)COP(=O)(O)O` [Example 36, (R)-Mono-(2-amino-4-{4-[2-(4-chloro-phenoxy)-ethoxy]-phenyl}-2-methyl-butyl) phosphate], the “S1P1 mode of action (Agon. = agonist)” value in assay [1] is “Agon”. In addition, the half-maximal effective concentration (EC50) in assay [1] is 0.6 nM; in assay [2] it was 14 nM; in assay [3], 15 nM; in assay [4] it was more than 1000 nM. The “S1P5 mode of action (Agon. = agonist)” value in assay [2] is given as “Agon”. Besides, in assay [3], the “S1P3 mode of action (Agon. = agonist)” value is given as “Agon”.

`COc1ccc(Br)cc1OCCCOc1ccc(CCC(N)(CO)COP(=O)(O)O)cc1` (centres unmarked) [Example 56]: in assay [1], the “S1P1 mode of action (Agon. = agonist)” value was “Agon” and the EC50 is 8.5 nM. Besides, in assay [2], the “S1P5 mode of action (Agon. = agonist)” value is recorded as “Agon” and the response was half-maximal at 16.5 nM (EC50). Moreover, in assay [3], the “S1P3 mode of action (Agon. = agonist)” value is reported as “Agon” and the EC50 was more than 10000 nM. In addition, in assay [4], the “S1P4 mode of action (Agon. = agonist)” value was “Agon” and the EC50 amounted to 1.6 nM.

Regarding `C[C@](N)(CO)CCc1ccc(OCCOc2ccc(Cl)cc2)cc1` [Example 1, (R)-2-Amino-4-{4-[2-(4-chloro-phenoxy)-ethoxy]-phenyl}-2-methyl-butan-1-ol Hydrochloride], the “dose giving depletion of peripheral blood lymphocytes by more than 50%” value is on record as 0.03 mg/kg in assay [5] (after 6 h) and 0.02 mg/kg in assay [5] (after 24 h).

`COc1cc(CC[C@@](C)(N)COP(=O)(O)O)ccc1OCCOc1ccccc1` [Example 43]: in assay [1], the “S1P1 mode of action (Agon. = agonist)” value was “Agon” and the response was half-maximal at 8 nM (EC50). Further, in assay [2], the “S1P5 mode of action (Agon. = agonist)” value is given as “Agon” and a half-maximal response (EC50) required 0.5 nM. In assay [3], the “S1P3 mode of action (Agon. = agonist)” value is given as “Agon” and the EC50 came to 340 nM. In assay [4], the “S1P4 mode of action (Agon. = agonist)” value was “Agon” and the EC50 is 43 nM.

Regarding `C[C@@](N)(CCc1ccc(OCCOc2ccccc2)cc1)COP(=O)(O)O` [Example 38], in assay [1], the “S1P1 mode of action (Agon. = agonist)” value is recorded as “Agon” and the response was half-maximal at 8.6 nM (EC50). Also, in assay [2], the “S1P5 mode of action (Agon. = agonist)” value is on record as “Agon” and the 50% effective concentration (EC50) is 11.7 nM. The molecule further showed a concentration giving a half-maximal response (EC50) in assay [3] of more than 1000 nM. Moreover, in assay [4], the “S1P4 mode of action (Agon. = agonist)” value was “Agon” and the EC50 stood at 28 nM.

With `C[C@@](N)(CCc1ccc(OCCOc2cccc(F)c2F)cc1)COP(=O)(O)O` [Example 42], in assay [1], the “S1P1 mode of action (Agon. = agonist)” value is reported as “Agon” and the EC50 came out at 5.5 nM. For the same molecule, in assay [2], the “S1P5 mode of action (Agon. = agonist)” value is recorded as “Agon” and the EC50 stood at 6.3 nM. The same molecule registered an EC50 in assay [3] of more than 1000 nM. In assay [4], the “S1P4 mode of action (Agon. = agonist)” value was “Agon” and the EC50 came to 8.2 nM.

`COc1ccc(Br)cc1OCCCOc1ccc(CC[C@@](C)(N)CO)cc1` [Example 53, (R)-2-Amino-4-{4-[3-(5-bromo-2-methoxy-phenoxy)-propoxy]-phenyl}-2-methyl-butan-1-ol Hydrochloride]: the entries for the “dose giving depletion of peripheral blood lymphocytes by more than 50%” value in assay [5] (after 6 h) and in assay [5] (after 48 h) were 0.1 mg/kg and 0.5 mg/kg, respectively.
